This is an account of results in patent US20230067194A1, “METHOD FOR TREATMENT OF ACQUIRED COGNITIVE DEFICITS” (CORNELL UNIVERSITY, priority 2020, published 2023).

Entries after “also recorded” stand apart in the source; their conditions may differ.

The subject of one assay is SBI mice. In words: Sleep-wake cycle LFP power spectra in secondary-blast injury (SBI) mice with sodium oxybate injection. It is filed as in vivo. The method, then: FIGS. 7A-7B. Effects of sodium oxybate injection on the sleep-wake cycle of SBI mice. The top panels display the delta power during the dark (blue; daytime) and light (yellow; sleep time) within 24 hours in (A) Non-REM, or (B) Wake mice. The pink vertical lines represent the time in which animals received an intraperitoneal injection of sodium oxybate (SO; 400 mg/Kg) diluted in saline. The bottom panels show the LFP power spectra obtained from sleep periods and wake periods with and without sodium oxybate. In (A), the dark blue line represents NREM sleep without sodium oxybate administration and the red line represents NREM sleep with sodium oxybate administration. In (B), the dark blue line represents Wake without sodium oxybate administration during prior sleep and the red line represents Wake with sodium oxybate administration during prior sleep. Application of sodium oxybate during the night results in elevation of delta (1-5 Hz) LFP power and increases during the subsequent wakeful period in beta (15-30 Hz) and gamma (>30 Hz) LFP. Importantly, consistent with our theory because of the short half-life of sodium oxybate these changes in wakeful LFP power reflect alteration of cortical neuronal properties linked to the increased delta during sleep induced by sodium oxybate.
The inventors inflicted a secondary-blast injury (SBI) to mice targeting the anterior forebrain mesocircuit, which corresponds to the frontal/prefrontalcortical-pallidal thalamocortical loop systems.
The inventors examined animals' sleep-wake cycle before, after the SBI, and while injecting sodium oxybate (400 mg/Kg; FIG. 7A-7B). Local field potentials (LFPs) were recorded from the frontal area and neck-EMG activity to detect and extract the different sleep/wake cycle components—Non-REM, REM, and Wake state. The inventors examined the whole range of biological LFP frequencies before and after sodium oxybate injection by calculating power spectral density using Thomson's multi-taper method implemented using the Chronux tool box from MATLAB.

The conditions of assay [1]: cited from earlier work.
[2] abbreviates: FIG. 7 legend, intraperitoneal 400 mg/Kg during prior sleep.
The mark [3] stands for this setting: wake state post-sodium oxybate injection (400 mg/Kg), 400 mg/kg.

As to `O=C(O)CCCO` [sodium oxybate], in the assay with SBI mice (setting [2]), the “beta (15-30 Hz) LFP power during the subsequent wakeful period” value is on record as “increases” and the “gamma (>30 Hz) LFP power during the subsequent wakeful period” value is recorded as “increases”. Besides, in the assay on SBI mice (FIG. 7 legend, intraperitoneal 400 mg/Kg in saline, application during the night, NREM sleep), the “delta (1-5 Hz) LFP power” value is on record as “elevation”. Also, in the assay on SBI mice (sodium oxybate 400 mg/Kg injected right before the sleep time (9 pm), frontal LFP), the “delta oscillations (1-4 Hz) LFP power in Non-REM” value is reported as “increase; also recorded: elevation”. Besides, in the assay with SBI mice (setting [3]), the “beta (20-40 Hz) LFP power during the wake state” value was “higher; also recorded: increases” and the “gamma (>40 Hz) LFP power during the wake state” value is recorded as “higher; also recorded: increases”. Besides, in the assay on SBI mice (wakeful period after night application of sodium oxybate), the “persistence of the elevation of delta power during the wakeful period” value is on record as “does not persist”. Besides, the “SWS (slow wave sleep)” value in assay [1] (dose-dependent) is recorded as “dose-dependent upregulation”. Moreover, the alpha-delta sleep entry in assay [1] (in several conditions) is reported as “suppress alpha-delta sleep”.
